Measured values: patent US20230212225A1, “PEPTIDE COMPOSTIONS AND METHODS FOR TREATING TAUOPATHIES” (AXOLTIS PHARMA, priority 2019, published 2023)
Where a SMILES comes first, the peptide text is derived from it.

What was measured:
[1] = Pharmacokinetics in human healthy subjects; type: in vivo; conditions: single IV 10 mg/kg
Protocol: As in animals; PK study of NX210 in Human Healthy subjects was conducted following the measurement of its cyclic form NX218.

[2] = system: Aβ25-35-induced short-term memory deficits; test: Late-stage efficacy: Y-maze with treatment started at D11; type: in vivo, mice
Protocol: Seven days after ICV injection of Aβ25-35 peptide (D08), all animals were tested for spontaneous alternation performance in the Y-maze, an index of spatial working memory (short-term memory test). Each mouse was placed at the end of one arm and allowed to move freely through the maze during an 8 min session. An alternation is defined as entries into all three arms on consecutive occasions. The number of maximum alternations is therefore the total number of arm entries minus two and the percentage of alternation is calculated as (actual alternations / maximum alternations) x 100. This parameter includes the percentage of alternation (memory index) (Maurice et al., 1996, 1998; Meunier et al., 2006).
The efficacy of NX210 and NX218 SCO-Spondin derived peptides was therefore assessed during this late-stage physiopathology setting. Specifically, the administrations of NX210, NX218 or vehicle were started at D11 and were repeated once a day until the end of the experiment.
All animals were tested for spontaneous alternation performance in the Y-maze, an index of short-term memory (see Example 3 for method details) from D08 (i.e. pre-treatment values) and then once a week for three weeks (D15, D22, D29).

[3] = system: Aβ25-35-induced long-term memory deficits; test: Step-through passive avoidance test (STPA), D09-D10; type: in vivo, mice
[4] = system: pTau (phosphorylated Tau protein); test: Brain biomarker assessment, hippocampus ELISA, D11; type: in vivo, mice
Protocol: (§1) In order to evaluate potential biological effects of NX210 or NX218 treatments on pathological biomarkers, mice from the Sc.Aβ / Vhc (n=6), Aβ25-35 / Vhc (n=6), Aβ25-35 / NX210 IP 2 mg/kg (n=5) and Aβ25-35 / NX218 IP 2 mg/kg (n=5) groups were sacrificed under anesthesia ten days after ICV injection of Aβ25-35 peptide (D11) and daily compound administrations (once a day).
(§2) For each mouse, the brain was quickly removed and dissected out on an ice-cold metal plate into 2 hemi-hippocampi, 2 hemi-frontal cortices and the rest of brain. Straight after each collection, brain samples were frozen on dry ice and stored at -80° C. After thawing, brain structures were dissociated in 50 mM Tris-150 mM NaCl buffer, pH 7.5, and sonicated for 20 sec. After centrifugation, supernatants containing proteins were used for ELISA assays according to the manufacturer’s instructions (see below). • For Aβ1-42 (amyloid-beta 1-42), use of the left hippocampus, ELISA kit from Cloud-Clone Corp., ref: CEA946Mu; batch: L190107385 • For pTau (phosphorylated Tau protein), use of the left hippocampus, ELISA kit from Fisher Scientific, ref: 10591255; batch: 187860001
(§3) For all assays, the absorbance was read at 450 nm and each sample concentration was calculated by using a specific standard curve. All samples were run in duplicate and the average of these duplicates was used for calculations.

[5] = system: Aβ1-42 (amyloid-beta 1-42); test: Brain biomarker assessment, hippocampus ELISA, D11; type: in vivo, mice
Protocol: as §1, §2, §3

[6] = system: hippocampal CA1 pyramidal neurons; test: Histological study, cresyl violet CA1 pyramidal neuron counting, D15; type: in vivo, mice
Description: In order to measure neuronal loss in this model (as described by Maurice et al., 2013), a well-known pathological event occurring in patients with AD/Tauopathies, hippocampal neurons were counted in the brain of Sham, Aβ25-35 / vehicle and Aβ25-35 / NX210-treated mice.
To do so, fourteen days after ICV injection of Aβ25-35 or Scrambled peptide (D15) and daily compound administrations of NX210 (IP) or vehicle (IP), mice were anaesthetized by ketamine/xylazine and then transcardially perfused with phosphate buffer solution (PBS, 15 ml at 5 ml/min, pH 7.4) until fluid running clear, followed by a solution of 4% paraformaldehyde (PFA, 25 ml at 5 ml/min) until the fixation tremors disappeared. Brains were removed carefully and kept in 4% PFA at 4° C. for 24-48 h. Brains were then dehydrated through a series of graded ethanol baths to displace the water, and then infiltrated with wax. Finally, the infiltrated brains were embedded into wax blocks and sectioned at […]. Cresyl violet (CV) staining was performed on 9 brain sections per animal, each coronal section separated by 100 µm for CA1 pyramidal neuron counting.

[7] = measured as NX218, maximum, N=3
[8] = measured as NX218, minimum, N=3
[9] = D08, pre-treatment value, IP 2 mg/kg once a day started at D11
[10] = D15, IP 2 mg/kg once a day started at D11
[11] = D22, IP 2 mg/kg once a day started at D11
[12] = D29, IP 2 mg/kg once a day started at D11
[13] = IP 2 mg/kg every other day (1/2d)
[14] = IP 3.75 mg/kg every other day (1/2d)
[15] = 2 mg/kg once a day for ten days
[16] = IP 2 mg/kg once a day, left hippocampus, D11

Compound: N=C(N)NCCC[C@H](NC(=O)[C@H](CO)NC(=O)[C@H](CS)NC(=O)[C@H](CO)NC(=O)[C@H](CO)NC(=O)[C@H](Cc1c[nH]c2ccccc12)NC(=O)CNC(=O)[C@H](CO)NC(=O)[C@@H](N)Cc1c[nH]c2ccccc12)C(=O)N[C@@H](CO)C(=O)N[C@@H](CS)C(=O)NCC(=O)O [NX210, W-S-G-W-S-S-C-S-R-S-C-G] (H-WSGWSSCSRSCG-OH; N-terminus and C-terminus assumed)
- Kel (clearance rate constant), AM ([1]; measured as NX218, arithmetic mean, N=3): 0.0348 I/min
- Kel (clearance rate constant), GM ([1]; measured as NX218, geometric mean, N=3): 0.0347 I/min
- AUClast, Max ([1]; measured as NX218, maximum): 7850 ng·min/mL
- Cmax, Max ([1]; measured as NX218, maximum): 1040 ng/mL
- Tmax, Max ([1]; measured as NX218, maximum): 12.00 min
- AUC∞, Max [1, 7]: 7920 ng·min/mL
- Kel (clearance rate constant), Max [1, 7]: 0.0372 I/min
- t½, Max [1, 7]: 22.5 min
- Kel (clearance rate constant), Median ([1]; measured as NX218, median, N=3): 0.0365 I/min
- AUClast, Min ([1]; measured as NX218, minimum): 1470 ng·min/mL
- Cmax, Min ([1]; measured as NX218, minimum): 185 ng/mL
- Tmax ([1]; measured as NX218, minimum): 6.00 min
- AUC∞, Min [1, 8]: 2800 ng·min/mL
- Kel (clearance rate constant), Min [1, 8]: 0.0308 I/min
- t½ [1, 8]: 18.6 min
- Y-maze (D08) % (Sc.Aβ / D11 vhc = 100) [2, 9]: 55%
- Y-maze (D08) Mean, percentage of alternation [2, 9]: 39.17%
- effect on short-term working memory deficits at D15, in words ([2]; D15, five daily administrations, 2 mg/kg started at D11): tendency to rescue
- Y-maze (D15) % (Sc.Aβ / D11 vhc = 100) [2, 10]: 71%
- Y-maze (D15) Mean, percentage of alternation [2, 10]: 55.55%
- effect on working memory deficits at D22, in words ([2]; D22, 12 day-treatment, 2 mg/kg started at D11): significantly rescued
- Y-maze (D22) % (Sc.Aβ / D11 vhc = 100) [2, 11]: 82%
- Y-maze (D22) Mean, percentage of alternation [2, 11]: 60.08%
- effect on memory deficits at D29, in words ([2]; D29, 19 day-treatment, 2 mg/kg started at D11): fully restored
- Y-maze (D29) % (compared to Sham group) [2, 12]: 97%
- Y-maze (D29) Mean, percentage of alternation [2, 12]: 74.73%
- EL % (Sc.Aβ / Vhc = 100) ([3]; IP 0.1 mg/kg once a day): 449%
- EL Mean, escape latency, retention session ([3]; IP 0.1 mg/kg once a day): 89.42 s
- STL % (Sc.Aβ / Vhc = 100) ([3]; IP 0.1 mg/kg once a day): 42%
- STL Mean, step-through latency, retention session ([3]; IP 0.1 mg/kg once a day): 118.92 s
- EL % (Sc.Aβ / Vhc = 100) ([3]; IP 1 mg/kg once a day): 267%
- EL Mean, escape latency, retention session ([3]; IP 1 mg/kg once a day): 53.08 s
- STL % (Sc.Aβ / Vhc = 100) ([3]; IP 1 mg/kg once a day): 63%
- STL Mean, step-through latency, retention session ([3]; IP 1 mg/kg once a day): 177.92 s
- EL % (Sc.Aβ / Vhc = 100) [3, 13]: 110%
- EL Mean, escape latency, retention session [3, 13]: 22.00 s
- STL % (Sc.Aβ / Vhc = 100) [3, 13]: 93%
- STL Mean, step-through latency, retention session [3, 13]: 263.33 s
- EL % (Sc.Aβ / Vhc = 100) ([3]; IP 2 mg/kg once a day): 156%
- EL Mean, escape latency, retention session ([3]; IP 2 mg/kg once a day): 31.17 s
- STL % (Sc.Aβ / Vhc = 100) ([3]; IP 2 mg/kg once a day): 88%
- STL Mean, step-through latency, retention session ([3]; IP 2 mg/kg once a day): 248.33 s
- EL % (Sc.Aβ / Vhc = 100) [3, 14]: 119%
- EL Mean, escape latency, retention session [3, 14]: 23.75 s
- STL % (Sc.Aβ / Vhc = 100) [3, 14]: 94%
- STL Mean, step-through latency, retention session [3, 14]: 264.75 s
- EL % (Sc.Aβ / Vhc = 100) ([3]; IP 3.75 mg/kg once a day): 139%
- EL Mean, escape latency, retention session ([3]; IP 3.75 mg/kg once a day): 27.67 s
- STL % (Sc.Aβ / Vhc = 100) ([3]; IP 3.75 mg/kg once a day): 90%
- STL Mean, step-through latency, retention session ([3]; IP 3.75 mg/kg once a day): 255.50 s
- effect on contextual long-term memory deficits (STL and EL), in words ([3]; NX210 2 and 3.75 mg/kg, NX218 1, 2 and 3.75 mg/kg, once a day or every other day): fully rescued
- effect on contextual long-term memory deficits (STL and EL) at subactive dose, in words ([3]; once a day, NX210 0.1 mg/kg, NX218 0.1 mg/kg, DPZ 0.25 mg/kg): do not impede
- effect on brain pTau vs Aβ25-35 / Vhc group, in words [4, 15]: significantly decreased
- pTau %, percentage of the control group (Sc.Aβ / Vhc) [4, 16]: 151%
- pTau Mean [4, 16]: 90.21
- effect on brain Aβ1-42 vs Aβ25-35 / Vhc group, in words [5, 15]: significantly decreased
- Aβ1-42 %, percentage of the control group (Sc.Aβ / Vhc) [5, 16]: 107%
- Aβ1-42 Mean [5, 16]: 24.25
- effect on neuronal loss in the hippocampus, in words ([6]; 2 mg/kg): significantly prevents
- Histology %, percentage of control (Sc.Aβ / Vhc) ([6]; IP 2 mg/kg once a day, D15): 93%
- Histology Mean ([6]; IP 2 mg/kg once a day, D15): 311.84 number of neurons per mm of tissue
